Results: patent publication US12589101B2, “Cyclodextrin protein drug conjugates” (Regeneron Pharmaceuticals, Inc., priority 2017, dated 2026)
≈ marks a conversion by molar mass, not a printed value. Like-named read-outs stand apart in the source and are kept apart here.

How the values were obtained:
[1] = Solubility of linker-payloads (LC-MS standard curve, saturated solution); assay type: physicochemical; settings: for Solubility: 10 min; for solubility at 10 min: water, thermodynamic from solid
Method: The following test assays the solubility of the linker-payloads with a cyclodextrin moiety and the linker-payloads without a cyclodextrin moiety.
The test compounds were dissolved in DMSO to build a standard curve using LC-MS method A or B. The test sample was dissolved in water and sonicated for 10 minutes, and then centrifuged. The upper clear solution was analyzed using the same method A or B and the solubility was calculated based on its peak area.
Detailed test procedures were as follows: • 1. […] 0.05 mg of compound was suspended in water (1 mL) and sonicated for 10 minutes. After centrifugation, the clear solution above was collected to provide the saturated sample solution. • 3. All the standard solutions A, B, C, D, E and sample solution were analyzed by LCMS (using the same method and same injection volume) to obtain the peak areas. • 4. Calculate the standard curve according to the data of A-D (X=concentration, Y=peak areas). • 5. Calculate to obtain the concentration of saturated sample solution according to the functions obtained above.

Cathepsin B = Cathepsin B (Homo sapiens, UniProt P07858); experiment: Cathepsin B cleavage rate of linker-payloads (Example 66); assay type: biochemical; settings: for capB / CapB (%): Cathepsin B cleavage rate; for capB: Table 8A; for CapB (%): pH 5.0, 37° C.
Method: Step 1: Preparation of Cathepsin B buffer: 0.1 M NaOAc/0.01M DTT (pH5.0) Dissolve 8.3 g/L NaOAc, 1.54 g/L DTT in deionized water. Adjust pH to 5.0 with HCl/sodium hydroxide.
Step 2: Test Cleavage Rate
• 1. Prepare 25 μM of testing sample: To a 2-mL-tube was added 0.5 mg of testing sample, followed by the addition of 0.2 mL of DMSO. The solution was added dropwise into 0.8 mL of 0.1 M NaOAc/0.01 M DTT buffer. The obtained mixtures were sonicated for 5 minutes to obtain clear and colorless solutions. The pH value of the solution was around 5 according to pH test strip. • 2. Preheat assay buffer: 0.1 M NaOAc/0.01 M DTT (pH 5.0) • 3. Spiking solutions for test compounds: 25 μM Spiking solutions for test compounds: Add 2 μL of 5 mM stock solution into 398 μL of 0.1 M NaOAc/0.01 M DTT buffer (pH 5.0). • 4. Prepare 0.47 μg/μL Cathepsin B in 50 mM NaOAc/1 mM EDTA (pH 5.0). Put on ice. • 5. Without CA074 samples: Add 4 μL of 0.47 μg/μL Cathepsin B into 196 μL of 25 μM Spiking solutions (from step 2), incubate the tubes at 37° C. • 6. With CA074 samples: Add 4 μL of 0.47 μg/μL Cathepsin B with 4 μL of 10 mM Inhibitor (CA074) into 196 μL of 25 μM Spiking solutions (from step 2), incubate the tubes. • 7. After quenching, shake the plate and centrifuge them at 14000 rpm. • 8. Transfer 50 μL of the supernatant from each well into a 96-well sample plate containing 50 μL of ultra pure water (Millipore, ZMQS50F01) for LC/MS analysis. Step 3: Test reference compounds: • 9. Preheat assay buffer: 100 mM Na/K phosphate, pH 6.0, with 1.33 mM EDTA and 2 mM DTT. • 10. Prepare 0.024 μg/μL Cathepsin B: Add 1 μL of 0.47 μg/μL Cathepsin B stock into 19 μL of assay buffer (from step 11). • 11. Add 2 μL of 0.024 μg/μL Cathepsin B (from step 12) to a opaque 96-well plate. • 12. Add 96 μL of assay buffer to each sample. • 13. Add 2 μL of the 10 mM substrate Z-RR-MNA (200 μM final concentration). • 14. For negative control (With inhibitor), add 2 μL of 10 mM Inhibitor (CA074): Immediately read the samples in a kinetic mode at excitation of 340 nm/emission of 425 nm (Read the plate every 30 Second for 3 min). Step 4: Stability of Cathepsin B in incubation samples: • 15. Take 5 μL of incubation samples into 93 μL of assay buffer (from step 11), and then add 2 μL of 10 mM substrate (Z-RR-MNA). • 16. Incubate the samples at 37° C. for 2 min. • 17. Read the samples at excitation of 340 nm/emission of 425 nm.

Human liver Cathepsin B = target: T1, Human liver Cathepsin B (Homo sapiens, UniProt P07858); experiment: Cathepsin B cleavage assay, payload released (Example 73); assay type: biochemical; settings: 37° C., 50 μM substrate, pH 5
T1 construct: Human liver Cathepsin B (Athens Research & Technology, Cat #16-12-030102); purchased Athens Research & Technology 16-12-030102; host or cells: human liver
Method: To determine the effect on the cleavage efficiency on a steroid or LXR agonist payload when a cyclodextrin moiety was added in the linker, a Cathepsin B cleavage assay was performed. For the assay, the linker-payload stock solution (10 mM of linker-payload in DMSO) was added into a solution of 100 mM NaOAc, 10 mM dithiothreitol, at pH5 to obtain a 50 μM substrate solution. Human liver Cathepsin B (Athens Research & Technology, Cat #16-12-030102) in 50 mM NaOAc, 1 mM EDTA, at pH 5, was added to the substrate solution. The Cathepsin B and substrate solution was mixed with and without 10 mM of a Cathepsin B inhibitor (CA074; APE Bio, Cat #A1926), and incubated at 37° C. for 4 hours. Following the 4 hour incubation, acetic acid and then acetonitrile were added to stop the reaction. The quenched samples then underwent centrifugation at 14,000 rpm. Aliquots of the resultant supernatants were then diluted with equal volume of water and analyzed by LC/MS to determine the amount of payload released. The stability and activity of Cathepsin B was confirmed by incubating with 200 μM fluorogenic substrate for Cathepsin B (Santa Cruz Biotechnology, Cat #207975) (fluorescence at excitation of 340 nm/emission of 425 nm).

[2] = aqueous, read-out: Aq. Solubility

CCCC1O[C@@H]2C[C@H]3[C@@H]4C[C@H](F)C5=CC(=O)C=C[C@]5(C)[C@@]4(F)[C@@H](O)C[C@]3(C)[C@]2(C(=O)COc2ccc(NC(=O)OCc3ccc(NC(=O)[C@H](CCCNC(N)=O)NC(=O)[C@@H](NC(=O)CCOCCOCCOCCOCCNC(=O)CCC(=O)N4Cc5ccccc5C#Cc5ccccc54)C(C)C)cc3)cc2)O1 (stereo partly shown) [Ex61, DIBAC-suc-PEG4-vcPAB-1i]
Solubility [1]: 0.01 mg/ mL mg/mL | solubility at 10 min ([1]; Aq. Solubility (mg/mL)): 10 µg/mL (≈ 6.68 µM) | solubility at 10 min ([1]; Solubility): < 10 µg/mL | capB (Cathepsin B): <5% | CapB (%) (Cathepsin B): % (% ≤50 CapB (%))

CCCC1O[C@@H]2C[C@H]3[C@@H]4C[C@H](F)C5=CC(=O)C=C[C@]5(C)[C@@]4(F)[C@@H](O)C[C@]3(C)[C@]2(C(=O)CNC(=O)OCc2ccc(NC(=O)[C@H](CCCNC(N)=O)NC(=O)[C@@H](NC(=O)CCOCCOCCOCCOCCNC(=O)CCC(=O)N3Cc4ccccc4C#Cc4ccccc43)C(C)C)cc2)O1 (stereo partly shown) [Ex58, DIBAC-suc-PEG4-vcPAB-1h]
solubility at 10 min ([1]; Table 8A, read-out: Solubility): < 20 µg/mL | solubility at 10 min [1, 2]: < 20 µg/mL | capB (Cathepsin B): 20.8% | CapB (%) (Cathepsin B): % (% ≤50 CapB (%)) | Percent of payload released at 4 hrs (Human liver Cathepsin B): 7.5-17.2%

CC[C@H](C)[C@@H]([C@@H](CC(=O)N1CCC[C@H]1[C@H](OC)[C@@H](C)C(=O)N[C@H](C)[C@@H](O)c1ccccc1)OC)N(C)C(=O)[C@@H](NC(=O)[C@H](C(C)C)N(C)C(=O)OCc1ccc(NC(=O)[C@H](CCCNC(N)=O)NC(=O)[C@@H](NC(=O)[C@@H](CCCCNC(=O)COC2CCCCCc3c2nnn3CC2OC3OC4C(CO)OC(OC5C(CO)OC(OC6C(CO)OC(OC7C(CO)OC(OC8C(CO)OC(OC2C(O)C3O)C(O)C8O)C(O)C7O)C(O)C6O)C(O)C5O)C(O)C4O)NC(=O)CCOCCOCCOCCOCCNC(=O)OC[C@@H]2[C@@H]3CCC#CCC[C@@H]32)C(C)C)cc1)C(C)C (stereo partly shown) [Ex42]
solubility at 10 min [1, 2]: > 1000 µg/mL | solubility at 10 min ([1]; read-out: Solubility): 1000 µg/mL (≈ 352 µM) | CapB (%) (Cathepsin B): % % (60< % % ≤70 CapB (%))

CC(C)[C@H](NC(=O)CCOCCOCCOCCOCCNC(=O)CCC(=O)N1Cc2ccccc2C#Cc2ccccc21)C(=O)N[C@@H](C)C(=O)Nc1ccc2c(c1)[C@@]1(C)CCC[C@](C)(C(=O)NC(=O)[C@@]3(C)CCC[C@]4(C)c5cc(O)ccc5CC[C@@H]34)[C@@H]1CC2 [Ex48, 1-(4-{2-Azatricyclo[10.4.0.0^4,9]hexadeca-1(12),4(9),5,7,13,15-hexaen-10-yn-2-yl}-4-oxobutanamido)-N-[(1S)-1-{[(1 S)-1-{[(4bS,8S,8aR)-8-{[(1S,4aS,10aR)-6-hydroxy-1,4a-dimethyl-1,2,3,4,4a,9,10,10a-octahydrophenanthrene-1-carbonyl]carbamoyl}-4b,8-dimethyl-4b,5,6,7,8,8a,9,10-octahydrophenanthren-3-yl]carbamoyl}ethyl]carbamoyl}-2-methylpropyl]-3,6,9,12-tetraoxapentadecan-15-amide]
Solubility [1]: <0.1 mg/ mL mg/mL | solubility at 10 min ([1]; Aq. Solubility (mg/mL)): < 100 µg/mL | solubility at 10 min ([1]; Solubility): < 100 µg/mL | Cathepsin B cleavage rate (Cathepsin B): 62% | capB (Cathepsin B): 13.6% | CapB (%) (Cathepsin B): % (% ≤50 CapB (%)) | Percent of payload released at 4 hrs (Human liver Cathepsin B): 13.6%

CC(C)[C@H](NC(=O)[C@@H](CCCCNC(=O)CCOCCOCCOCCOCCNC(=O)COC1CCCCCc2nnn(CC3OC4OC5C(CO)OC(OC6C(CO)OC(OC7C(CO)OC(OC8C(CO)OC(OC9C(CO)OC(OC3C(O)C4O)C(O)C9O)C(O)C8O)C(O)C7O)C(O)C6O)C(O)C5O)c21)NC(=O)CCOCCOCCOCCOCCNC(=O)CCC(=O)N1Cc2ccccc2C#Cc2ccccc21)C(=O)N[C@@H](CCCNC(N)=O)C(=O)Nc1ccc(COC(=O)NCCOc2ccc3c(c2)[C@@]2(C)CCC[C@](C)(C(=O)NC(=O)[C@@]4(C)CCC[C@]5(C)c6cc(O)ccc6CC[C@@H]45)[C@@H]2CC3)cc1 (stereo partly shown) [Ex50]
solubility at 10 min ([1]; Solubility): 330 µg/mL (≈ 108 µM) | CapB (%) (Cathepsin B): % (% ≤50 CapB (%))

CCCC1O[C@@H]2C[C@H]3[C@@H]4C[C@H](F)C5=CC(=O)C=C[C@]5(C)[C@@]4(F)[C@@H](O)C[C@]3(C)[C@]2(C(=O)CNC(=O)OCc2ccc(NC(=O)[C@H](CCCNC(N)=O)NC(=O)[C@@H](NC(=O)[C@@H](CCCCNC(=O)COC3CCCCCc4c3nnn4CC3OC4OC5C(CO)OC(OC6C(CO)OC(OC7C(CO)OC(OC8C(CO)OC(OC9C(CO)OC(OC3C(O)C4O)C(O)C9O)C(O)C8O)C(O)C7O)C(O)C6O)C(O)C5O)NC(=O)CCOCCOCCOCCOCCNC(=O)CCC(=O)N3Cc4ccccc4C#Cc4ccccc43)C(C)C)cc2)O1 (stereo partly shown) [Ex59, DIBAC-suc-PEG4-dLys(COT-CD)-vcPAB-1h]
solubility at 10 min ([1]; Table 8A, read-out: Solubility): 26 µg/mL (≈ 9.64 µM) | solubility at 10 min [1, 2]: 26 µg/mL (≈ 9.64 µM) | solubility at 10 min ([1]; read-out: Solubility): 26 µg/mL (≈ 9.64 µM) | capB (Cathepsin B): 29% | CapB (%) (Cathepsin B): % (% ≤50 CapB (%)) | Percent of payload released at 4 hrs (Human liver Cathepsin B): 28.9%

CCC[C@@H]1O[C@@H]2C[C@H]3[C@@H]4CCC5=CC(=O)C=C[C@]5(C)[C@H]4[C@@H](O)C[C@]3(C)[C@]2(C(=O)COc2ccc(NC(=O)[C@H](C)NC(=O)[C@@H](NC(=O)CCOCCOCCOCCOCCNC(=O)CCC(=O)N3Cc4ccccc4C#Cc4ccccc43)C(C)C)cc2)O1 [Ex45, 1-(4-{2-azatricyclo[10.4.0.0^4,9]hexadeca-1(12),4(9),5,7,13,15-hexaen-10-yn-2-yl}-4-oxobutanamido)-N-[(1S)-1-{[(1S)-1-[(4-{2-[(1S,2S,4R,6R,8S,9S,11 S,12S,13R)-11-hydroxy-9,13-dimethyl-16-oxo-6-propyl-5,7-dioxapentacyclo[10.8.0.0^2,9.0^4,8.0^13,18]icosa-14,17-dien-8-yl]-2-oxoethoxy}phenyl)carbamoyl]ethyl]carbamoyl}-2-methylpropyl]-3,6,9,12-tetraoxapentadecan-15-amide]
solubility at 10 min [1, 2]: < 100 µg/mL | solubility at 10 min ([1]; read-out: Solubility): < 100 µg/mL | CapB (%) (Cathepsin B): % (% ≤50 CapB (%))
